This is an account of results in PMC12426595 (Cancer Research Communications, 2025).

A short description of data set [1]: In vivo DDI: gilteritinib pharmacokinetics. The following applies: plasma, po, 30 mg/kg, gilteritinib 30 mg/kg oral. Set-up: species or system mouse.
Data set [2] is described as follows: In vivo DDI: pravastatin pharmacokinetics. The following applies: male, C57BL/6, mouse, plasma, po, 20 mg/kg, C57BL/6 male, pravastatin 20 mg/kg oral.
For a further data set, the system named is P-gp. The following applies: cited from earlier work.
The target in data set [3] is T1, BTK-NanoLuc Fusion Vector in HEK293 cells (Homo sapiens, UniProt Q06187).
T1 construct: host or cells: HEK293
In words: NanoBRET intracellular binding assay, BTK. The following applies: read-out: EC50 BTK (NanoBRET), positive control. The method, then:
Intracellular binding was determined with a NanoBRET assay (Reaction Biology). […] The protein kinase inhibitors dasatinib and […] were used as positive controls.
For orientation: BRET reads energy transfer from a luciferase to a nearby fluorophore.

The mark [4] stands for this setting: female, C57BL/6, mouse, C57BL/6 female, perpetrator TL-895 3 mg/kg.
The mark [5] stands for this setting: female, C57BL/6, mouse, C57BL/6 female, perpetrator vehicle.
The mark [6] stands for this setting: female, NSG (NOD/SCID gamma), mouse, NSG female, perpetrator TL-895 3 mg/kg.
Setting [7] is: female, NSG (NOD/SCID gamma), mouse, NSG female, perpetrator vehicle.
Where [8] appears, read: male, C57BL/6, mouse, C57BL/6 male, perpetrator TL-895 3 mg/kg.
[9] abbreviates: male, C57BL/6, mouse, C57BL/6 male, perpetrator vehicle.
Setting [10] is: male, NSG (NOD/SCID gamma), mouse, NSG male, perpetrator TL-895 3 mg/kg.
Setting [11] is: male, NSG (NOD/SCID gamma), mouse, NSG male, perpetrator vehicle.

T1 sequence (Q06187 whole entry, the tested form may be a part): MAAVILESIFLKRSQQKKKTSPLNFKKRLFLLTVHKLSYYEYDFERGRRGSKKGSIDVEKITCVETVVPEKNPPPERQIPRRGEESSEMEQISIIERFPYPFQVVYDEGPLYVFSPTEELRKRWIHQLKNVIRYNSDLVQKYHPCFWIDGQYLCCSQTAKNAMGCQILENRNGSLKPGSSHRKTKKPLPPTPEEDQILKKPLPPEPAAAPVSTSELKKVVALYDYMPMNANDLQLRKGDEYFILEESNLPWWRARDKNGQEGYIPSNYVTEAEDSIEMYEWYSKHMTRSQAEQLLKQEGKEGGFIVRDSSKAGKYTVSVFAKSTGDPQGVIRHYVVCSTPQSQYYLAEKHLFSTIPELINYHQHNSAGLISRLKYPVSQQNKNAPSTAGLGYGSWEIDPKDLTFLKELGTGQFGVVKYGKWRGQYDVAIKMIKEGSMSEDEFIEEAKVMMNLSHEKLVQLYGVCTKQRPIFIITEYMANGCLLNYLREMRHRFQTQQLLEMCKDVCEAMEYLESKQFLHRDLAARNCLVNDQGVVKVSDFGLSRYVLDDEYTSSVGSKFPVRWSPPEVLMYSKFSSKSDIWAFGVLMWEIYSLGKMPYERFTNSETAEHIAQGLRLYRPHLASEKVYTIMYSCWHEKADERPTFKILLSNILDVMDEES

For `CCc1nc(C(N)=O)c(Nc2ccc(N3CCC(N4CCN(C)CC4)CC3)c(OC)c2)nc1NC1CCOCC1` [Gilteritinib, gilteritinib], the AUC in data set [1] (setting [4]) stood at 6440 ng·h/mL; in data set [1] (setting [5]), 6980 ng·h/mL; in data set [1] (setting [6]), 4830 ng·h/mL; in data set [1] (setting [7]), 4930 ng·h/mL; in data set [1] (setting [8]), 5130 ng·h/mL; in data set [1] (setting [9]), 4960 ng·h/mL. Moreover, the AUC in data set [1] (setting [10]) amounted to 4370 ng·h/mL; in data set [1] (setting [11]), 4410 ng·h/mL. Further, the Cmax in data set [1] (setting [4]) is 688 ± 97 ng/mL; in data set [1] (setting [5]), 787 ± 102 ng/mL; in data set [1] (setting [6]) it was 507 ± 28 ng/mL; in data set [1] (setting [7]) it was 593 ± 87 ng/mL; in data set [1] (setting [8]), 502 ± 113 ng/mL; in data set [1] (setting [9]), 469 ± 51 ng/mL. Besides, the Cmax worked out at 421 ± 20 ng/mL in data set [1] (setting [10]) and 440 ± 86 ng/mL in data set [1] (setting [11]).

As for `CC[C@H](C)C(=O)O[C@H]1C[C@H](O)C=C2C=C[C@H](C)[C@H](CC[C@@H](O)C[C@@H](O)CC(=O)O)[C@H]21` [Pravastatin, pravastatin], the AUC in data set [2] (perpetrator TL-895 10 mg/kg) was 49.8 ± 7.6 ng·h/mL; in data set [2] (perpetrator rifampin 20 mg/kg), 333 ± 64 ng·h/mL; in data set [2] (perpetrator vehicle), 102 ± 42 ng·h/mL. The Cmax in data set [2] (perpetrator TL-895 10 mg/kg) amounted to 182 ± 31 ng/mL; in data set [2] (perpetrator rifampin 20 mg/kg), 994 ± 148 ng/mL; in data set [2] (perpetrator vehicle) it was 406 ± 186 ng/mL.

As for `C=CC(=O)N1CCC[C@@H](n2nc(-c3ccc(Oc4ccccc4)cc3)c3c(N)ncnc32)C1` [ibrutinib], the “effect of P-gp deficiency on overall exposure” value in the data set with P-gp is reported as “only minimal effects”.

As for `CNC(=O)c1ccccc1Nc1nc(Nc2ccc(N3CCNCC3)cc2)ncc1Cl` [CTx-0294885], in data set [3], the EC50 is 30.1 nM.

For orientation: AUC means the area under the concentration-time curve, a measure of exposure. Low values mean low exposure, high ones high exposure. A word on the Cmax: it is the maximum level reached in the sampled fluid or tissue. As a reminder, the EC50 is the concentration giving half of the maximal effect.
